Results on 1 compound are retold here after patent publication US20050019308A1, “Oncolytic viruses for the treatment of neoplasms having activated PP2A or Rac” (Oncolytics Biotech Inc., priority 2003, published 2005).

The test system of one assay is PP2B. The conditions noted are these: cited from earlier work.
The next assay has as its system PP2A. The conditions noted are these: cited from earlier work.
Another assay concerns PKR. Description: PKR phosphorylation in cells transformed with v-erbB in the presence of selective phosphatase inhibitors. It counts as cell-based. The conditions noted are these: in the presence of the inhibitor. From the text:
(§1) PKR is not phosphorylated (i.e., […]) in cells transformed with elements of the ras pathway, such as v-erbB. To determine whether serine-threonine phosphatases are responsible for the lack of phosphorylation of PKR in these cells, selective inhibitors of the phosphatases are employed to assess the role of each phosphatase. […] Inhibitors specific for PP1 or PP2C have no effects on PKR phosphorylation.

For another assay, the system named is reovirus. Nature of the assay: Susceptibility of phosphatase inhibitor-treated transformed cells to reovirus infection. Type of assay: cell-based. The conditions noted are these: okadaic acid-treated cells.
Description: as §1

A further assay has as its system PP1. The conditions noted are these: cited from earlier work.

Molecules are shown by their SMILES.

Turning to `C=C1[C@@H](O)[C@@H]2O[C@]3(CC[C@H](/C=C/[C@@H](C)[C@@H]4CC(C)=C[C@@]5(O[C@H](C[C@@](C)(O)C(=O)O)CC[C@H]5O)O4)O3)CC[C@H]2O[C@@H]1[C@@H](O)C[C@H](C)[C@H]1O[C@@]2(CCCCO2)CC[C@H]1C` [okadaic acid], the effectiveness against phosphatase entry in the assay with PP2B is “only marginally against PP2B”; in the assay on PP2A it was “most effective against PP2A”; with PP1, “less so against PP1”. Further, in the assay with PKR, the “effect on PKR phosphorylation” value is “PKR becomes phosphorylated”. In the assay with reovirus, the “susceptibility of treated cells to reovirus infection” value was “become susceptible to reovirus infection”.
